For 35 compounds, IC50 results are on record in patent US10183009B2, “Therapeutic compounds and uses thereof” (GENENTECH, INC., priority 2014, dated 2019).

pIC50: −log10 of the molar value.

The target of the first assay is BRD4(BD1) (Homo sapiens (Human), UniProt O60885). Kind of assay: BRD4 AlphaLisa Binding Assay.
As to `CN(C)C(=O)c1cccc(-c2cn(CCC3CC3)c(=O)c3[nH]ccc23)c1` [Example 4, 3-[6-(2-cyclopropylethyl)-7-oxo-1H-pyrrolo[2,3-c]pyridin-4-yl]-N,N-dimethyl-benzamide], the negative-log IC50 (pIC50) was 5.68.

`CN(C)C(=O)c1cccc(-c2cn(CC3CCCC3)c(=O)c3[nH]ccc23)c1` [Example 5, 3-[6-(cyclopentylmethyl)-7-oxo-1H-pyrrolo[2,3-c]pyridin-4-yl]-N,N-dimethyl-benzamide] showed a negative logarithm of the IC50 (pIC50) of 5.19.

The compound `CC/C=C/Cn1cc(-c2cccc(C(=O)N(C)C)c2)c2cc[nH]c2c1=O` [Example 7, N,N-dimethyl-3-[7-oxo-6-[(E)-pent-2-enyl]-1H-pyrrolo[2,3-c]pyridin-4-yl]benzamide] showed a pIC50 of 5.57.

As for `CN(C)C(=O)c1cccc(-c2cn(CC3CCCCC3)c(=O)c3[nH]ccc23)c1` [Example 9, 3-[6-(cyclohexylmethyl)-7-oxo-1H-pyrrolo[2,3-c]pyridin-4-yl]-N,N-dimethyl-benzamide], the pIC50 was 4.82.

For `CN(C)C(=O)c1cccc(-c2cn(CC3CCC3)c(=O)c3[nH]ccc23)c1` [Example 11, 3-[6-(cyclobutylmethyl)-7-oxo-1H-pyrrolo[2,3-c]pyridin-4-yl]-N,N-dimethyl-benzamide], the pIC50 was 5.44.

In turn, `CN(C)C(=O)c1cccc(-c2cn(CCC3CCCCC3)c(=O)c3[nH]ccc23)c1` [Example 12, 3-[6-(2-cyclohexylethyl)-7-oxo-1H-pyrrolo[2,3-c]pyridin-4-yl]-N,N-dimethyl-benzamide] showed a negative-log IC50 (pIC50) of 4.92.

`CCCCCn1cc(-c2cccc(C(=O)N(C)C)c2)c2cc[nH]c2c1=O` [Example 13, N,N-dimethyl-3-(7-oxo-6-pentyl-1H-pyrrolo[2,3-c]pyridin-4-yl)benzamide] gave a pIC50 of 5.35.

`CC(C)Cn1cc(-c2cccc(C(=O)N(C)C)c2)c2cc[nH]c2c1=O` [Example 16, 3-(6-isobutyl-7-oxo-1H-pyrrolo[2,3-c]pyridin-4-yl)-N,N-dimethyl-benzamide] gave a pIC50 of 5.10.

As to `C/C=C/Cn1cc(-c2ccc(C(N)=O)c(F)c2)c2cc[nH]c2c1=O` [Example 20, 4-[6-[(E)-but-2-enyl]-7-oxo-1H-pyrrolo[2,3-c]pyridin-4-yl]-2-fluoro-benzamide], the negative-log IC50 (pIC50) is 6.05.

Take `C/C=C/Cn1cc(-c2ccc(C(C)(C)C)cc2)c2cc[nH]c2c1=O` [Example 23, 6-[(E)-but-2-enyl]-4-(4-tert-butylphenyl)-1H-pyrrolo[2,3-c]pyridin-7-one]: the pIC50 was 5.68.

With `C/C=C/Cn1cc(-c2cccc(C(=O)NC3CC3)c2)c2cc[nH]c2c1=O` [Example 26, 3-[6-[(E)-but-2-enyl]-7-oxo-1H-pyrrolo[2,3-c]pyridin-4-yl]-N-cyclopropyl-benzamide], the pIC50 was 6.08.

Take `C/C=C/Cn1cc(-c2ccc(C(=O)NC3CC3)cc2)c2cc[nH]c2c1=O` [Example 28, 4-[6-[(E)-but-2-enyl]-7-oxo-1H-pyrrolo[2,3-c]pyridin-4-yl]-N-cyclopropyl-benzamide]: the pIC50 is 6.29.

For `C/C=C/Cn1cc(-c2ccc(C(C)C)cc2)c2cc[nH]c2c1=O` [Example 31, 6-[(E)-but-2-enyl]-4-(4-isopropylphenyl)-1H-pyrrolo[2,3-c]pyridin-7-one], the pIC50 was 5.80.

As to `C/C=C/Cn1cc(-c2cccc(C(N)=O)c2F)c2cc[nH]c2c1=O` [Example 39, 3-[6-[(E)-but-2-enyl]-7-oxo-1H-pyrrolo[2,3-c]pyridin-4-yl]-2-fluoro-benzamide], the negative-log IC50 (pIC50) was 5.92.

As for `C/C=C/Cn1cc(-c2cc(C(N)=O)ccc2F)c2cc[nH]c2c1=O` [Example 40, 3-[6-[(E)-but-2-enyl]-7-oxo-1H-pyrrolo[2,3-c]pyridin-4-yl]-4-fluoro-benzamide], the negative logarithm of the IC50 (pIC50) was 5.74.

Take `C/C=C/Cn1cc(-c2cc(C(=O)NC3CC3)ccc2OC)c2cc[nH]c2c1=O` [Example 63, 3-[6-[(E)-but-2-enyl]-7-oxo-1H-pyrrolo[2,3-c]pyridin-4-yl]-N-cyclopropyl-4-methoxy-benzamide]: the pIC50 is 6.01.

On to `C/C=C/Cn1cc(-c2cc(C(=O)NC3CCOC3)ccc2OC)c2cc[nH]c2c1=O` (centres unmarked) [Example 65, 3-[6-[(E)-but-2-enyl]-7-oxo-1H-pyrrolo[2,3-c]pyridin-4-yl]-4-methoxy-N-tetrahydrofuran-3-yl-benzamide], for which the pIC50 is 5.80.

In a further assay the target is BRD9 (Homo sapiens (Human), UniProt Q9H8M2). Kind of assay: BRD9 AlphaLisa Binding Assay. The protocol: After 20 minutes incubation at room temperature AlphaLisa Streptavidin Acceptor Beads (Perkin-A[…]) and AlphaLisa Nickel donor beads (Perkin AS 10 ID) were added to a final concentration of 15 ug/mL each.
Sequence of BRD9 (Q9H8M2 134-239 limits assumed): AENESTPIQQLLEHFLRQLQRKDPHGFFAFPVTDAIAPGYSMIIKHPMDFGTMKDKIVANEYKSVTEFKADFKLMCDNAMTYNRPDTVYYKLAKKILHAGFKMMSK
As to `C=CCn1cc(-c2ccc(C(=O)N3CCOCC3)c(Cl)c2)c2cc(C)[nH]c2c1=O` [Example 101, 6-allyl-4-[3-chloro-4-(morpholine-4-carbonyl)phenyl]-2-methyl-1H-pyrrolo[2,3-c]pyridin-7-one], the pIC50 was 7.92.

The compound `C/C=C/Cn1cc(-c2ncc(C(=O)N3CCOCC3)cc2OC)c2cc(C)[nH]c2c1=O` [Example 103, 6-[(E)-but-2-enyl]-4-[3-methoxy-5-(morpholine-4-carbonyl)-2-pyridyl]-2-methyl-1H-pyrrolo[2,3-c]pyridin-7-one] showed a pIC50 of 7.34.

`C/C=C/Cn1cc(-c2cc(Cl)c(C(=O)N3CCOCC3)cn2)c2cc(C)[nH]c2c1=O` [Example 104, 6-[(E)-but-2-enyl]-4-[4-chloro-5-(morpholine-4-carbonyl)-2-pyridyl]-2-methyl-1H-pyrrolo[2,3-c]pyridin-7-one] showed a pIC50 of 7.66.

With `C/C=C/Cn1cc(-c2cnc(C(=O)N3CCOCC3)nc2)c2cc(C)[nH]c2c1=O` [Example 105, 6-[(E)-but-2-enyl]-2-methyl-4-[2-(morpholine-4-carbonyl)pyrimidin-5-yl]-1H-pyrrolo[2,3-c]pyridin-7-one], the pIC50 was 7.08.

Regarding `C/C=C/Cn1cc(-c2ccc(C(C)(C)O)cc2OC)c2cc(C)[nH]c2c1=O` [Example 107, 6-[(E)-but-2-enyl]-4-[4-(1-hydroxy-1-methyl-ethyl)-2-methoxy-phenyl]-2-methyl-1H-pyrrolo[2,3-c]pyridin-7-one], the pIC50 is 7.00.

`C/C=C/Cn1cc(-c2cc(C(=O)NCc3cnccn3)ccc2OC)c2cc(C)[nH]c2c1=O` [Example 109, 3-[6-[(E)-but-2-enyl]-2-methyl-7-oxo-1H-pyrrolo[2,3-c]pyridin-4-yl]-4-methoxy-N-(pyrazin-2-ylmethyl)benzamide]: the negative logarithm of the IC50 (pIC50) was 8.22.

Regarding `C/C=C/Cn1cc(-c2ncc(C(=O)N3CCN(C)CC3)cc2OC)c2cc(C)[nH]c2c1=O` [Example 110, 6-[(E)-but-2-enyl]-4-[3-methoxy-5-(4-methylpiperazine-1-carbonyl)-2-pyridyl]-2-methyl-1H-pyrrolo[2,3-c]pyridin-7-one], the negative-log IC50 (pIC50) is 7.41.

In turn, `C/C=C/Cn1cc(-c2ccc(C(=O)N3CCC(C(=O)O)CC3)c(Cl)c2)c2cc(C)[nH]c2c1=O` [Example 112, 1-[4-[6-[(E)-but-2-enyl]-2-methyl-7-oxo-1H-pyrrolo[2,3-c]pyridin-4-yl]-2-chloro-benzoyl]piperidine-4-carboxylic acid] gave a negative-log IC50 (pIC50) of 8.10.

In the case of `C/C=C/Cn1cc(-c2ccc(C(=O)N3CCC(C(N)=O)CC3)c(Cl)c2)c2cc(C)[nH]c2c1=O` [Example 113, (E)-1-(4-(6-(but-2-en-1-yl)-2-methyl-7-oxo-6,7-dihydro-1H-pyrrolo[2,3-c]pyridin-4-yl)-2-chlorobenzoyl)piperidine-4-carboxamide], the pIC50 was 8.52.

The compound `C/C=C/Cn1cc(-c2ccc(C(=O)N3CCOCC3)c(OC(C)C)c2)c2cc(C)[nH]c2c1=O` [Example 114, 6-[(E)-but-2-enyl]-4-[3-isopropoxy-4-(morpholine-4-carbonyl)phenyl]-2-methyl-1H-pyrrolo[2,3-c]pyridin-7-one] gave a pIC50 of 8.52.

On to `C/C=C/Cn1cc(-c2ccc(C(=O)N3CCOCC3)c(OCC3CC3)c2)c2cc(C)[nH]c2c1=O` [Example 115, 6-[(E)-but-2-enyl]-4-[3-(cyclopropylmethoxy)-4-(morpholine-4-carbonyl)phenyl]-2-methyl-1H-pyrrolo[2,3-c]pyridin-7-one], for which the negative logarithm of the IC50 (pIC50) is 8.30.

Compound `C/C=C/Cn1cc(-c2ccc(C(=O)N3CCNCC3)c(Cl)c2)c2cc(C)[nH]c2c1=O` [Example 116, (E)-6-(but-2-en-1-yl)-4-(3-chloro-4-(piperazine-1-carbonyl)phenyl)-2-methyl-1H-pyrrolo[2,3-c]pyridin-7(6H)-one] gave a negative-log IC50 (pIC50) of 8.40.

For `C/C=C/Cn1cc(-c2ccc(C(=O)N3CC(n4ccc(N)n4)C3)c(Cl)c2)c2cc(C)[nH]c2c1=O` [Example 117, (E)-4-(4-(3-(3-amino-1H-pyrazol-1-yl)azetidine-1-carbonyl)-3-chlorophenyl)-6-(but-2-en-1-yl)-2-methyl-1H-pyrrolo[2,3-c]pyridin-7(6H)-one], the pIC50 is 8.30.

As to `C/C=C/Cn1cc(-c2ccc(C(=O)N3CC(n4ccc(N)n4)C3)cc2)c2cc(C)[nH]c2c1=O` [Example 118, 4-[4-[3-(3-aminopyrazol-1-yl)azetidine-1-carbonyl]phenyl]-6-[(E)-but-2-enyl]-2-methyl-1H-pyrrolo[2,3-c]pyridin-7-one], the negative-log IC50 (pIC50) is 8.05.

`C/C=C/Cn1cc(-c2cc(C(=O)NCc3cncnc3)ccc2OC)c2cc(C)[nH]c2c1=O` [Example 120, 3-[6-[(E)-but-2-enyl]-2-methyl-7-oxo-1H-pyrrolo[2,3-c]pyridin-4-yl]-4-methoxy-N-(pyrimidin-5-ylmethyl)benzamide] showed a pIC50 of 8.52.

The compound `CCCCn1cc(-c2cc(OC)c(C(=O)N3CCOCC3)cc2OC)c2cc(C)[nH]c2c1=O` [Example 121, 6-butyl-4-[2,5-dimethoxy-4-(morpholine-4-carbonyl)phenyl]-2-methyl-1H-pyrrolo[2,3-c]pyridin-7-one] gave a pIC50 of 7.77.

In turn, `CCCCn1cc(-c2ncc(C(=O)N3CCN(C)CC3)cc2OC)c2cc(C)[nH]c2c1=O` [Example 122, 6-butyl-4-[3-methoxy-5-(4-methylpiperazine-1-carbonyl)-2-pyridyl]-2-methyl-1H-pyrrolo[2,3-c]pyridin-7-one] gave a negative-log IC50 (pIC50) of 6.74.

For `CCCCn1cc(-c2ncc(C(=O)N3CCOCC3)cc2OC)c2cc(C)[nH]c2c1=O` [Example 123, 6-butyl-4-[3-methoxy-5-(morpholine-4-carbonyl)-2-pyridyl]-2-methyl-1H-pyrrolo[2,3-c]pyridin-7-one], the pIC50 was 6.68.
